Patent US20260284211A1, “DISACCHARIDE LINKER, LINKER-PAYLOAD CONTAINING THE SAME AND GLYCAN CHAIN-REMODELED ANTIBODY-DRUG CONJUGATE, PREPARATION METHOD AND USES THEREOF” (GENEQUANTUM HEALTHCARE (SUZHOU) CO., LTD., priority 2023, published 2026)

What was measured:
Assay type in all cases: cell-based
[1] = test system: NCI-N87 tumor cells; test: Inhibition of NCI-N87 tumor cell proliferation (CellTiter-Glo); conditions: Homo sapiens, HER2 high expression cells, 96 hours, cell viability, read-out: IC50, inhibitory effects on NCI-N87 tumor cells
Experimental: (§1) Tumor cells in the logarithmic phase of growth were collected, and 5000 cells per well were evenly inoculated in each hole of the 96-well plate. After the cell adhesion overnight, the cells were treated with different concentrations of drugs for 96 hours. Cell viability was measured by CellTiter-Glo® luminescence cell viability detection kit, and the percentage of cell viability was calculated.

[2] = test system: SK-BR-3 tumor cells; test: Inhibition of SK-BR-3 tumor cell proliferation (CellTiter-Glo); conditions: Homo sapiens, HER2 high expression cells, 96 hours, cell viability, read-out: IC50, inhibitory effects on SK-BR-3 tumor cells
Experimental: as §1

[3] = test system: MDA-MB-468 tumor cells; test: Inhibition of MDA-MB-468 tumor cell proliferation (CellTiter-Glo); conditions: Homo sapiens, HER2-negative cells, 96 hours, cell viability, read-out: IC50, inhibitory effects on MDA-MB-468 tumor cells
Experimental: as §1

For C=C1C[C@@H]2CC[C@@]34C[C@H]5O[C@H]6[C@@H](O3)[C@H]3O[C@H](CC[C@@H]3O[C@H]6[C@H]5O4)CC(=O)C[C@@H]3[C@@H](OC)[C@@H](C[C@H](O)CN)O[C@H]3C[C@H]3O[C@@H](CC[C@@H]1O2)C[C@@H](C)C3=C [Eribulin], which IC50 [1] is on record?
The IC50 was 0.614 nM.

And the IC50 [2]?
The IC50 was 0.305 nM.

What about the IC50 [3] of the same compound?
The IC50 was 0.0933 nM.
